Source: US20150011423A1, “MEANS AND METHODS FOR ASSESSING KIDNEY TOXICITY” (BASF SE, priority 2011, published 2015)
Values joined by “and” are separate entries in the source; they are usually repeats but may differ in a detail not shown here. Equal entries are not always repeated. Where two headings read alike, the source gives them in different places. Marks after values point to notes of the source that are not given here. Blank lines part the entries; values can stand above or below the molecule they belong to.

Tests used:
[1] = tested on: rats; conditions: rat, in vivo
[2] = tested on: rats; experiment: 28-day repeated dose study in rats with mass spectrometry-based plasma metabolite profiling (GC-MS, LC-MS, SPE-LC-MS); treatment ratios versus control
[3] = plasma, female rats, day 28, high dose, Table 5a tubular necrosis
[4] = plasma, female rats, day 28, high dose, Table 5b tubular necrosis

Leucine, treatment ratio versus control [1]: 1.26 *
Compound: NC[C@H]1O[C@H](O[C@H]2[C@H](O)[C@@H](O[C@H]3O[C@H](CO)[C@@H](O)[C@H](N)[C@H]3O)[C@H](N)C[C@@H]2N)[C@H](N)C[C@@H]1O [Tobramycin s.c., Tobramycin]
Docosahexaenoic acid (C22:cis[4,7,10,13,16,19]6), treatment ratio versus control [2, 3]: 1.05 *
Docosapentaenoic acid (C22:cis[7,10,13,16,19]5), treatment ratio versus control [2, 3]: 1.56 *
Eicosanoic acid (C20:0), treatment ratio versus control [2, 3]: 1.05
Glycerol, lipid fraction, treatment ratio versus control [2, 3]: 1.2 *
Phosphate (inorganic and organic phosphates), treatment ratio versus control [2, 3]: 1.3 *
Hippuric acid, treatment ratio versus control [2, 4]: 0.14 *
Lactate, treatment ratio versus control [2, 4]: 0.64 *

Choline plasmalogen No 03, treatment ratio versus control [1]: 1.25 *
Histidine, treatment ratio versus control [1]: 1.29 *
Pantothenic acid, treatment ratio versus control [1]: 1.23 *
Threonic acid, treatment ratio versus control [1]: 1.46 *
Threonine, treatment ratio versus control [1]: 1.58 *
Valine, treatment ratio versus control [1]: 1.15 *
trans-4-Hydroxyproline, treatment ratio versus control [1]: 1.23 *
18-Hydroxy-11-deoxycorticosterone, treatment ratio versus control ([2]; rat, in vivo): 0.38 *
Choline plasmalogen No 03, treatment ratio versus control ([2]; rat, in vivo): 1.55 * and 1.56 *
Creatinine, treatment ratio versus control ([2]; rat, in vivo): 0.84 *
Glutamate, treatment ratio versus control ([2]; rat, in vivo): 0.55 * and 0.65 * and 0.7 *
Glycine, treatment ratio versus control ([2]; rat, in vivo): 1.5 *
Hippuric acid, treatment ratio versus control ([2]; rat, in vivo): 0.38 *
Lysophosphatidylcholine (C20:4), treatment ratio versus control ([2]; rat, in vivo): 0.85 * and 0.87 * and 0.89 *
Malate, treatment ratio versus control ([2]; rat, in vivo): 0.61 * and 0.55 * and 0.54 *
Proline, treatment ratio versus control ([2]; rat, in vivo): 1.23
Sphingomyelin (d18:2, C16:0), treatment ratio versus control ([2]; rat, in vivo): 2.34*
Threonine, treatment ratio versus control ([2]; rat, in vivo): 1.2 * and 1.59 *
Compound: Cn1c(=O)c2c(ncn2C)n(C)c1=O [Caffeine]
